Measured values from patent US12209102B2, “Heterocyclic compounds and uses thereof” (Kumquat Biosciences Inc., priority 2022, dated 2025).

Experiments:
Assay type in all cases: biochemical
K-Ras WT = biological target: T1, K-Ras WT (Homo sapiens, UniProt P01116); assay: HTRF resonance energy transfer assay, K-Ras WT / SOS1 interaction; settings: HTRF assay of Example 5; read-out: IC50 against K-Ras WT
T1 construct: made in house; host or cells: E. coli BL21 (DE3)
Method in brief: (§1)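 Buffer about 5 mM HEPES pH 7.4 with ~150 mM NaCl, ~1 mM DTT, 0.05% BSA, 0.0025% (v/v) Igepal. Protein constructs used at molarity matching the IC50 range studied (e.g. ~500 nM). FRET between tagged K-Ras and hSOS1 measured after short incubation.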

K-Ras G12S = biological target: T2, K-Ras G12S (Homo sapiens, UniProt P01116, G12S); assay: HTRF resonance energy transfer assay, K-Ras G12S / SOS1 interaction; settings: HTRF assay of Example 5; read-out: IC50 against K-Ras G12S
T2 construct: made in house; host or cells: E. coli BL21 (DE3)
T2 sequence (P01116 1-188 isoform P01116-2 G12S): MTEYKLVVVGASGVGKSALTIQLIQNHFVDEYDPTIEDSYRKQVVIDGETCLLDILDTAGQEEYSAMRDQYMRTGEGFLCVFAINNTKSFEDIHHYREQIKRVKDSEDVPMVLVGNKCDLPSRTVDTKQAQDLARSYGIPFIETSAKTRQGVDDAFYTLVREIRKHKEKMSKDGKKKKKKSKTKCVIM
Method in brief: as §1

K-Ras G12D = biological target: T3, K-Ras G12D (Homo sapiens, UniProt P01116, G12D); assay: HTRF resonance energy transfer assay, K-Ras G12D / SOS1 interaction; settings: HTRF assay of Example 5; read-out: IC50 against K-Ras G12D
T3 construct: made in house; host or cells: E. coli BL21 (DE3)
T3 sequence (P01116 1-188 isoform P01116-2 G12D): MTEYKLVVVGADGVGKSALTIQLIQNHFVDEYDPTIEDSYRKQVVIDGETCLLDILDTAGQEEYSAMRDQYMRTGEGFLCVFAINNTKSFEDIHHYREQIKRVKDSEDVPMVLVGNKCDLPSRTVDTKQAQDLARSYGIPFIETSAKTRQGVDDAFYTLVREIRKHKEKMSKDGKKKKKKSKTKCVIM
Method in brief: as §1

K-Ras G12V = biological target: T4, K-Ras G12V (Homo sapiens, UniProt P01116, G12V); assay: HTRF resonance energy transfer assay, K-Ras G12V / SOS1 interaction; settings: HTRF assay of Example 5; read-out: IC50 against K-Ras G12V
T4 construct: made in house; host or cells: E. coli BL21 (DE3)
T4 sequence (P01116 1-188 isoform P01116-2 G12V): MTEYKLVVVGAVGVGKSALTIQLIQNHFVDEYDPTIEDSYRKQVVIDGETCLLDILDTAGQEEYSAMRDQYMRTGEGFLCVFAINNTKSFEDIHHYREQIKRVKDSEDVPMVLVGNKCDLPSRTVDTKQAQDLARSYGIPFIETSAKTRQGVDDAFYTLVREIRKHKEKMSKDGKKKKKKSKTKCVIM
Method in brief: as §1

Measured: IC50

T1 sequence (P01116 1-188 isoform P01116-2): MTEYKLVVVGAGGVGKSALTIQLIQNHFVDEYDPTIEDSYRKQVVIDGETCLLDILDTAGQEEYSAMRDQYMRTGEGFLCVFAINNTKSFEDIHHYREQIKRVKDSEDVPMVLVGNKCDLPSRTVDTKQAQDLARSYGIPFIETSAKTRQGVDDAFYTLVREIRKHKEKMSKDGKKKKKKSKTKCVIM

C#Cc1c(F)ccc2cc(O)cc(-c3nc4c5c(nc(OC[C@@]67CCCN6C[C@H](F)C7)nc5c3F)N(C3CCNC3)CCO4)c12 (stereo partly drawn) [Compound 939, 5-ethynyl-6-fluoro-4-(4-fluoro-2-(((2R,7aS)-2-fluorotetrahydro-1H-pyrrolizin-7a(5H)-yl)methoxy)-10-(pyrrolidin-3-yl)-9,10-dihydro-8H-7-oxa-1,3,6,10-tetraazacyclohepta[de]naphthalen-5-yl)naphthalen-2-ol]
< 100 nM: all assays above

CC1Oc2c(Cl)c(-c3ccc(F)c4sc(N)c(C#N)c34)c(F)c3nc(OC[C@@]45CCCN4C[C@H](F)C5)nc(c23)N(CC(F)F)C1CC#N (stereo partly drawn) [Compound 968, 2-amino-4-(8-chloro-5-(cyanomethyl)-4-(2,2-difluoroethyl)-10-fluoro-2-(((2R,7aS)-2-fluorotetrahydro-1H-pyrrolizin-7a(5H)-yl)methoxy)-6-methyl-5,6-dihydro-4H-[1,4]oxazepino[5,6,7-de]quinazolin-9-yl)-7-fluorobenzo[b]thiophene-3-carbonitrile]
< 100 nM: all assays above

CC(=O)C1COc2c(Cl)c(-c3ccc(F)c4sc(N)c(C#N)c34)c(F)c3nc(OC[C@@]45CCCN4C[C@H](F)C5)nc(c23)N1CC(F)F (stereo partly drawn) [Compound 981, 4-(5-acetyl-8-chloro-4-(2,2-difluoroethyl)-10-fluoro-2-(((2R,7aS)-2-fluorotetrahydro-1H-pyrrolizin-7a(5H)-yl)methoxy)-5,6-dihydro-4H-[1,4]oxazepino[5,6,7-de]quinazolin-9-yl)-2-amino-7-fluorobenzo[b]thiophene-3-carbonitrile]
< 100 nM: all assays above

N#Cc1c(N)sc2c(F)ccc(-c3c(Cl)c4c5c(nc(OC[C@@]67CCCN6C[C@H](F)C7)nc5c3F)N(CC(F)F)C(C3CC3(F)F)CO4)c12 (stereo partly drawn) [Compound 987, 2-amino-4-(8-chloro-5-(2,2-difluorocyclopropyl)-4-(2,2-difluoroethyl)-10-fluoro-2-(((2R,7aS)-2-fluorotetrahydro-1H-pyrrolizin-7a(5H)-yl)methoxy)-5,6-dihydro-4H-[1,4]oxazepino[5,6,7-de]quinazolin-9-yl)-7-fluorobenzo[b]thiophene-3-carbonitrile]
< 100 nM: all assays above

Cn1nc(NC(=O)C2CN2)cc1CN1CCOc2c(Cl)c(-c3ccc(F)c4sc(N)c(C#N)c34)c(F)c3nc(OC[C@@]45CCCN4C[C@H](F)C5)nc1c23 (stereo partly drawn) [Compound 999, N-(5-((9-(2-amino-3-cyano-7-fluorobenzo[b]thiophen-4-yl)-8-chloro-10-fluoro-2-(((2R,7aS)-2-fluorotetrahydro-1H-pyrrolizin-7a(5H)-yl)methoxy)-5,6-dihydro-4H-[1,4]oxazepino[5,6,7-de]quinazolin-4-yl)methyl)-1-methyl-1H-pyrazol-3-yl)aziridine-2-carboxamide]
< 100 nM: all assays above

C[C@H]1C[C@@H](N2CCOc3c(Cl)c(-c4ccc(F)c5sc(N)c(C#N)c45)c(F)c4nc(OC[C@@]56CCCN5C[C@H](F)C6)nc2c34)CN1 [Compound 1010, 2-amino-4-(8-chloro-10-fluoro-2-(((2R,7aS)-2-fluorotetrahydro-1H-pyrrolizin-7a(5H)-yl)methoxy)-4-((3R,5S)-5-methylpyrrolidin-3-yl)-5,6-dihydro-4H-[1,4]oxazepino[5,6,7-de]quinazolin-9-yl)-7-fluorobenzo[b]thiophene-3-carbonitrile]
< 100 nM: all assays above

CN1c2nc(OC[C@@]34CCCN3C[C@H](F)C4)nc3c(F)c(-c4ccc(F)c5sc(N)c(C#N)c45)c(Cl)c(c23)OC[C@@H]1CNC(=O)C(F)F [Compound 1018, N-(((5S)-9-(2-amino-3-cyano-7-fluorobenzo[b]thiophen-4-yl)-8-chloro-10-fluoro-2-(((2R,7aS)-2-fluorotetrahydro-1H-pyrrolizin-7a(5H)-yl)methoxy)-4-methyl-5,6-dihydro-4H-[1,4]oxazepino[5,6,7-de]quinazolin-5-yl)methyl)-2,2-difluoroacetamide]
< 100 nM: all assays above

C#Cc1c(F)ccc2cc(O)cc(-c3nc4c5c(nc(OC[C@@]67CCCN6C[C@H](F)C7)nc5c3F)N(C3CCN(C=O)C3)CCO4)c12 (stereo partly drawn) [Compound 1019, 3-(5-(8-ethynyl-7-fluoro-3-hydroxynaphthalen-1-yl)-4-fluoro-2-(((2R,7aS)-2-fluorotetrahydro-1H-pyrrolizin-7a(5H)-yl)methoxy)-8,9-dihydro-10H-7-oxa-1,3,6,10-tetraazacyclohepta[de]naphthalen-10-yl)pyrrolidine-1-carbaldehyde]
< 100 nM: all assays above

N#Cc1c(N)sc2c(F)ccc(-c3c(Cl)c4c5c(nc(OC[C@@]67CCCN6C[C@H](F)C7)nc5c3F)N(Cc3ccn[nH]3)CCO4)c12 [Compound 1023, 4-(4-((1H-pyrazol-5-yl)methyl)-8-chloro-10-fluoro-2-(((2R,7aS)-2-fluorotetrahydro-1H-pyrrolizin-7a(5H)-yl)methoxy)-5,6-dihydro-4H-[1,4]oxazepino[5,6,7-de]quinazolin-9-yl)-2-amino-7-fluorobenzo[b]thiophene-3-carbonitrile]
< 100 nM: all assays above

N#CCC1COc2c(Cl)c(-c3ccc(F)c4sc(N)c(C#N)c34)c(F)c3nc(OC[C@@]45CCCN4C[C@H](F)C5)nc(c23)N1CCCN (stereo partly drawn) [Compound 1029, 2-amino-4-(4-(3-aminopropyl)-8-chloro-5-(cyanomethyl)-10-fluoro-2-(((2R,7aS)-2-fluorotetrahydro-1H-pyrrolizin-7a(5H)-yl)methoxy)-5,6-dihydro-4H-[1,4]oxazepino[5,6,7-de]quinazolin-9-yl)-7-fluorobenzo[b]thiophene-3-carbonitrile]
< 100 nM: all assays above

C/C=C\[C@H]1COc2c(Cl)c(-c3ccc(F)c4sc(N)c(C#N)c34)c(F)c3nc(OC[C@@]45CCCN4C[C@H](F)C5)nc(c23)N1CC(F)F [Compound 1032, 2-amino-4-((5S)-8-chloro-4-(2,2-difluoroethyl)-10-fluoro-2-(((2R,7aS)-2-fluorotetrahydro-1H-pyrrolizin-7a(5H)-yl)methoxy)-5-((Z)-prop-1-en-1-yl)-5,6-dihydro-4H-[1,4]oxazepino[5,6,7-de]quinazolin-9-yl)-7-fluorobenzo[b]thiophene-3-carbonitrile]
< 100 nM: all assays above

N#Cc1c(N)sc2c(F)ccc(-c3c(Cl)c4c5c(nc(OC[C@@]67CCCN6C[C@H](F)C7)nc5c3F)N(C3CCCNCC3)CCO4)c12 (stereo partly drawn) [Compound 1059, 2-amino-4-(4-(azepan-4-yl)-8-chloro-10-fluoro-2-(((2R,7aS)-2-fluorotetrahydro-1H-pyrrolizin-7a(5H)-yl)methoxy)-5,6-dihydro-4H-[1,4]oxazepino[5,6,7-de]quinazolin-9-yl)-7-fluorobenzo[b]thiophene-3-carbonitrile]
< 100 nM: all assays above

C#Cc1c(F)ccc2cc(O)cc(-c3nc4c5c(nc(OC[C@@]67CCCN6C[C@H](F)C7)nc5c3F)N(C3CCCN(C=O)C3)CCO4)c12 (stereo partly drawn) [Compound 1066, 3-(5-(8-ethynyl-7-fluoro-3-hydroxynaphthalen-1-yl)-4-fluoro-2-(((2R,7aS)-2-fluorotetrahydro-1H-pyrrolizin-7a(5H)-yl)methoxy)-8,9-dihydro-10H-7-oxa-1,3,6,10-tetraazacyclohepta[de]naphthalen-10-yl)piperidine-1-carbaldehyde]
< 100 nM: all assays above

CC1(O)CCCC(N2CCOc3c(Cl)c(-c4ccc(F)c5sc(N)c(C#N)c45)c(F)c4nc(OC[C@@]56CCCN5C[C@H](F)C6)nc2c34)C1 (stereo partly drawn) [Compound 1069, 2-amino-4-(8-chloro-10-fluoro-2-(((2R,7aS)-2-fluorotetrahydro-1H-pyrrolizin-7a(5H)-yl)methoxy)-4-(3-hydroxy-3-methylcyclohexyl)-5,6-dihydro-4H-[1,4]oxazepino[5,6,7-de]quinazolin-9-yl)-7-fluorobenzo[b]thiophene-3-carbonitrile]
< 100 nM: all assays above
